Assays:
[1] = test system: unresectable stage III or IV melanoma without a BRAF mutation; test: Clinical trial NCT01721772: nivolumab vs dacarbazine in previously untreated melanoma without BRAF mutation; type: in vivo, human; details: 3-year follow up, previously untreated BRAF wildtype advanced melanoma
Description: The present example reports data collected from two clinical trials: NCT01721772 and NCT01844505. In NCT01721772, 418 subjects with confirmed, unresectable, previously untreated stage III or IV melanoma without a BRAF mutation were randomly assigned in a 1:1 ratio to receive by means of intravenous infusion either 3 mg of nivolumab per kilogram of body weight every 2 weeks, plus a dacarbazine-matched placebo every 3 weeks (n=210, 206 treated), or 1000 mg of dacarbazine per square meter of body-surface area every 3 weeks, plus a nivolumab-matched placebo every 2 weeks (n=208, 205 treated). Randomization was stratified according to tumor PD-L1 status (positive vs. negative or indeterminate) and metastasis stage (M0, M1a, or M1b vs. M1c, defined according to the tumor-node-metastasis system of the American Joint Committee on Cancer and the International Union against Cancer).
The primary end point was overall survival. Secondary end points included investigator-assessed progression-free survival, objective response rate, tumor PD-L1 expression, and health related quality of life. Exploratory endpoints included safety, pharmacokinetics, and biomarker analysis.

[2] = monotherapy, every two weeks; cited from earlier work
[3] = test system: PD-L1, PD-1, T-cell markers (CD3, CD4, CD8, FOXP3), macrophage markers (CD68, CD163); test: IHC biomarker assessment of pretreatment HCC tumor samples vs BOR and overall survival (NCT01658878); set-up: species or system human; details: for Objective response rate, % (95% CI): BOR
Description: Pretreatment tumor samples (fresh or archival) were obtained from patients in the escalation and expansion phases receiving 3 mg/kg nivolumab (saved for IHC) or 0.1-10 mg/kg nivolumab (saved for RNA sequencing).
Samples were analyzed using (i) IHC to assess PD-L1, PD-1, T-cell markers (CD3, CD4, CD8, FOXP3), and macrophage markers (CD68, CD163); and (ii) RNA sequencing to assess tumor inflammatory signatures. Biomarkers were assessed for their association with clinical outcomes including BOR by blinded independent review committee (per RECIST v1.1) and overall survival. Analyses were performed using the standard Limma and Cox regression framework.

[4] = test system: advanced hepatocellular carcinoma (HCC); test: Clinical Trial NCT01658878: nivolumab in advanced hepatocellular carcinoma, SOR-naive and SOR-experienced cohorts 1 and 2; type: in vivo, human
Description: Cohort 1 comprised 80 SOR-naïve subjects, and Cohort 2 comprised 182 SOR-experienced subjects. Eleven subjects in Cohort 1 and 37 subjects in Cohort 2 were administered 0.1-10 mg/kg nivolumab as part of a dose-escalation analysis. Sixty-nine subject in Cohort 1 and 145 subjects in cohort 2 were administered 3 mg/kg nivolumab as part of a dose-expansion analysis. Following initial treatment, 154 subjects in Cohort 2 (9 subject from the dose-escalation study and 145 subjects from the dose-expansion study) were administered maintenance nivolumab at 3 mg/kg.
The primary endpoints of Clinical Trial NCT01658878 were safety and tolerability (dose-escalation) as well as objected response rate (ORR; dose-expansion). Secondary endpoints included ORR (dose-escalation), disease control rate, time to response, duration of response, and overall survival. Exploratory endpoints included biomarker assessments, which are discussed here. […]

[5] = test system: unresectable stage III or IV melanoma; test: Clinical trial NCT01844505: nivolumab, nivolumab plus ipilimumab, or ipilimumab in previously untreated melanoma; type: in vivo, human; details: 4-year follow up, first-line, advanced melanoma
Description: In NCT01844505, 945 previously untreated patients with unresectable stage III or IV melanoma were randomly assigned in a 1:1:1 ratio to receive one of the following regimens: (i) 3 mg of nivolumab per kilogram of body weight every 2 weeks (plus ipilimumab-matched placebo) (n=316, 313 treated); (ii) 1 mg of nivolumab per kilogram every 3 weeks plus 3 mg of ipilimumab per kilogram every 3 weeks for 4 doses, followed by 3 mg of nivolumab per kilogram every 2 weeks for cycle 3 and beyond (n=314, 313 treated); or 3 mg of ipilimumab per kilogram every 3 weeks for 4 doses (plus nivolumab-matched placebo) (n=315, 311 treated) (FIG. 14). Both nivolumab and ipilimumab were administered by means of intravenous infusion.
Randomization was stratified according to tumor PD-L1 status (positive vs. negative or indeterminate), BRAF mutation status (V600 mutation-positive vs. wild-type), and American Joint Committee on Cancer metastasis stage (M0, M1a, or M1b vs. M1c). Treatment continued until disease progression (as defined by RECIST, version 1.1), development of unacceptable toxic events, or withdrawal of consent.
Progression-free survival and overall survival were coprimary endpoints. Secondary endpoints included objective response rate, tumor PD-L1 expression, and health related quality of life. Exploratory endpoints included safety, pharmacokinetics, and biomarker analysis.

[6] = tumor cell PD-L1 <1%, SOR-experienced population n = 137
[7] = tumor cell PD-L1 <1%, overall population (SOR-naïve and SOR-experienced) n = 195
[8] = tumor cell PD-L1 ≥1%, SOR-experienced population n = 137
[9] = tumor cell PD-L1 ≥1%, overall population (SOR-naïve and SOR-experienced) n = 195

Compound: nivolumab
- ORR, % (95% CI) [1]: 43%
- median OS, months (95% CI) [1]: 37.5 (25.5—NR) months
- median PFS, months (95% CI) [1]: 5.1 (3.5-12.2) months
- maximum tolerated dose (MTD), not reached at highest dose [2]: > 10 mg/kg
- Complete response, n (%) [3, 6]: 4 (3.6) n (%)
- Partial response, n (%) [3, 6]: 10 (9) n (%)
- Progressive disease, n (%) [3, 6]: 42 (38.1) n (%)
- Stable disease, n (%) [3, 6]: 49 (44.5) n (%)
- Objective response rate, % (95% CI) [3, 6]: 12.7 (7.6-20.3) %
- Complete response, n (%) [3, 7]: 6 (3.7) n (%)
- Partial response, n (%) [3, 7]: 19 (11.9) n (%)
- Progressive disease, n (%) [3, 7]: 59 (37.1) n (%)
- Stable disease, n (%) [3, 7]: 66 (41.5) n (%)
- Objective response rate, % (95% CI) [3, 7]: 15.7 (10.8-22.2) %
- Complete response, n (%) [3, 8]: 1 (3.7) n (%)
- Partial response, n (%) [3, 8]: 6 (22.2) n (%)
- Progressive disease, n (%) [3, 8]: 10 (37) n (%)
- Stable disease, n (%) [3, 8]: 8 (29.6) n (%)
- Objective response rate, % (95% CI) [3, 8]: 25.9 (12.9-44.9) %
- Complete response, n (%) [3, 9]: 2 (5.5) n (%)
- Partial response, n (%) [3, 9]: 8 (22.2) n (%)
- Progressive disease, n (%) [3, 9]: 15 (41.6) n (%)
- Stable disease, n (%) [3, 9]: 9 (25) n (%)
- Objective response rate, % (95% CI) [3, 9]: 27.7 (15.7-44.1) %
- ORR [4]: 14.3%
- subjects with duration of response (DOR) of at least 12 months [4]: 50%
- ORRb, % (95% CI) [5]: 45%
- median OS, months (95% CI) [5]: 36.9 (28.3—NR) months
- median PFS, months (95% CI) [5]: 6.9 (5.1-10.2) months

Compound: ipilimumab
- ORRb, % (95% CI) [5]: 19%
- median OS, months (95% CI) [5]: 19.9 (16.9-24.6) months
- median PFS, months (95% CI) [5]: 2.9 (2.8-3.2) months

Compound: CN(C)/N=N/c1[nH]cnc1C(N)=O [dacarbazine]
- ORR, % (95% CI) [1]: 14%
- median OS, months (95% CI) [1]: 11.2 (9.6-13.0) months
- median PFS, months (95% CI) [1]: 2.2 (2.1-2.5) months

Source: patent US20220195046A1, “METHODS OF TREATING TUMOR” (Bristol-Myers Squibb Company, priority 2019, published 2022)
